Data reported in ChEMBL document CHEMBL3098111, “Discovery of 2,5-diarylnicotinamides as selective orexin-2 receptor antagonists (2-SORAs)” (Bioorg Med Chem Lett, 2013).

What was measured:
[1] = target: 5-hydroxytryptamine receptor 2B (Homo sapiens, UniProt P41595); assay: Inhibition of human 5-HT2B receptor at 10 nM relative to control
[2] = target: Polyunsaturated fatty acid lipoxygenase ALOX12 (Homo sapiens) (UniProt P18054); assay: Inhibition of human 12-lipoxygenase at 10 uM relative to control
Oryctolagus cuniculus = organism: Oryctolagus cuniculus; assay: Inhibition of rabbit monoamine transporter at 10 uM relative to control
[3] = target: Macrophage metalloelastase (Homo sapiens) (UniProt P39900); assay: Inhibition of human MMP-12 at 10 uM relative to control
[4] = target: D(2) dopamine receptor (Homo sapiens) (UniProt P14416); assay: Inhibition of human dopamine D2S receptor at 10 uM relative to control
[5] = target: Histamine H3 receptor (Homo sapiens) (UniProt Q9Y5N1); assay: Inhibition of human histamine H3 receptor at 10 uM relative to control
[6] = target: Protein kinase C alpha type (Homo sapiens) (UniProt P17252); assay: Inhibition of human PRKCA at 100 uM relative to control
[7] = target: Thyrotropin-releasing hormone receptor (Rattus norvegicus) (UniProt Q01717); assay: Inhibition of rat TRH receptor at 10 uM relative to control
[8] = target: Androgen receptor (Rattus norvegicus) (UniProt P15207); assay: Inhibition of rat androgen receptor at 10 uM relative to control
[9] = target: C-C chemokine receptor type 5 (Homo sapiens) (UniProt P51681); assay: Inhibition of human CCR5 at 10 uM relative to control
Rattus norvegicus [10] = organism: Rattus norvegicus; assay: Inhibition of rat choline transporter at 10 uM relative to control
[11] = target: Vasopressin V2 receptor (Homo sapiens) (UniProt P30518); assay: Inhibition of human V2 receptor at 10 uM relative to control
[12] = target: Prostaglandin E2 receptor EP4 subtype (Homo sapiens) (UniProt P35408); assay: Inhibition of human prostanoid EP4 receptor at 10 uM relative to control
D(3) dopamine receptor [13] = target: T1, D(3) dopamine receptor (Homo sapiens, UniProt P35462); assay: Inhibition of human dopamine D3 receptor at 1 uM relative to control
[14] = target: Receptor-type tyrosine-protein phosphatase C (Homo sapiens) (UniProt P08575); assay: Inhibition of human CD45 at 10 uM relative to control
[15] = target: Neprilysin (Homo sapiens) (UniProt P08473); assay: Inhibition of human neutral endopeptidase at 10 uM relative to control
[16] = target: Platelet-activating factor receptor (Homo sapiens) (UniProt P25105); assay: Inhibition of human PAF receptor at 10 uM relative to control
[17] = target: Beta-3 adrenergic receptor (Homo sapiens) (UniProt P13945); assay: Inhibition of human beta3 adrenergic receptor at 10 uM relative to control
D(3) dopamine receptor [18] = target: T1, D(3) dopamine receptor; assay: Inhibition of human dopamine D3 receptor at 0.1 uM relative to control
[19] = target: Delta-type opioid receptor (Homo sapiens) (UniProt P41143); assay: Inhibition of human delta opioid receptor at 10 uM relative to control
[20] = target: Proto-oncogene tyrosine-protein kinase Src (Homo sapiens) (UniProt P12931); assay: Inhibition of human SRC at 10 uM relative to control
[21] = target: Somatostatin receptor type 2 (Homo sapiens) (UniProt P30874); assay: Inhibition of human SST2 receptor at 10 uM relative to control
[22] = target: Muscarinic acetylcholine receptor M5 (Homo sapiens) (UniProt P08912); assay: Inhibition of human muscarinic M5 receptor at 10 uM relative to control
Rattus norvegicus [23] = organism: Rattus norvegicus; assay: Inhibition of rat ATP-sensitive potassium channel at 10 uM relative to control
[24] = target: Glutamate NMDA receptor (Rattus norvegicus) (UniProt P35439+Q00959+Q00960+Q00961+Q62645+Q8VHN2+Q9R1M7); assay: Inhibition of rat NMDA receptor glycine binding site at 10 uM relative to control; type: protein-complex assay
[25] = target: GABA-A receptor; alpha-5/beta-3/gamma-2 (Homo sapiens) (UniProt P18507+P28472+P31644); assay: Inhibition of human GABA alpha5beta3gamma2 receptor muscimol binding site at 10 uM relative to control; type: protein-complex assay
[26] = target: Cysteinyl leukotriene receptor 1 (Homo sapiens) (UniProt Q9Y271); assay: Inhibition of human CysLT1 receptor at 10 uM relative to control
[27] = target: Phosphodiesterase 3 (Homo sapiens) (UniProt Q14432+Q13370); assay: Inhibition of human PDE3 at 100 uM relative to control; type: protein assay
[28] = target: Peroxisome proliferator-activated receptor alpha (Homo sapiens) (UniProt Q07869); assay: Inhibition of human PPARalpha at 10 uM relative to control
Cricetinae = assay: Inhibition of hamster ATP-sensitive potassium channel at 10 uM relative to control
Rattus norvegicus [29] = organism: Rattus norvegicus; assay: Inhibition of rat glutamate receptor at 10 uM relative to control
Rattus norvegicus [30] = organism: Rattus norvegicus; assay: Inhibition of rat 5-HT2 receptor at 10 uM relative to control
[31] = target: Alpha-2C adrenergic receptor (Homo sapiens) (UniProt P18825); assay: Inhibition of human alpha2C adrenergic receptor at 10 uM relative to control
[32] = target: 5-hydroxytryptamine receptor 3A (Homo sapiens) (UniProt P46098); assay: Inhibition of human 5-HT3 receptor at 10 uM relative to control
[33] = target: Adenosine receptor A3 (Homo sapiens) (UniProt P0DMS8); assay: Inhibition of human adenosine A3 receptor at 10 uM relative to control
Caspase-3 (Homo sapiens) = Caspase-3 (Homo sapiens) (UniProt P42574); assay: Inhibition of human caspase 3 at 10 uM relative to control
Bos taurus = organism: Bos taurus; assay: Inhibition of bovine PDE6 at 100 uM relative to control
[34] = target: T2, 5-hydroxytryptamine receptor 1A (Homo sapiens) (UniProt P08908); assay: Inhibition of human 5-HT1A receptor at 10 nM relative to control
T2 sequence (whole entry): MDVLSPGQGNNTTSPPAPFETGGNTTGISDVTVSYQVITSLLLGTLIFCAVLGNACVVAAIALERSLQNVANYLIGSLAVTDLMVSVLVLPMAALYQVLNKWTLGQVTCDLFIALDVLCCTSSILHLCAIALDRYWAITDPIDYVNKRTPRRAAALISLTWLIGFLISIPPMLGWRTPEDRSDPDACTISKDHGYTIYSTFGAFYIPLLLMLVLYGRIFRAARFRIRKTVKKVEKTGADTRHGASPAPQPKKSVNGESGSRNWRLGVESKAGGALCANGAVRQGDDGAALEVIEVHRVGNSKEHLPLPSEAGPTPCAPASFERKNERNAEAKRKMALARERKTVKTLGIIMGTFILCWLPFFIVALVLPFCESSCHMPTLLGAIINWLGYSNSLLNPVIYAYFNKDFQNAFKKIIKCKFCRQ

[35] = target: Calcitonin receptor (Homo sapiens) (UniProt P30988); assay: Inhibition of human calcitonin receptor at 10 uM relative to control

T1 sequence (P35462 whole entry): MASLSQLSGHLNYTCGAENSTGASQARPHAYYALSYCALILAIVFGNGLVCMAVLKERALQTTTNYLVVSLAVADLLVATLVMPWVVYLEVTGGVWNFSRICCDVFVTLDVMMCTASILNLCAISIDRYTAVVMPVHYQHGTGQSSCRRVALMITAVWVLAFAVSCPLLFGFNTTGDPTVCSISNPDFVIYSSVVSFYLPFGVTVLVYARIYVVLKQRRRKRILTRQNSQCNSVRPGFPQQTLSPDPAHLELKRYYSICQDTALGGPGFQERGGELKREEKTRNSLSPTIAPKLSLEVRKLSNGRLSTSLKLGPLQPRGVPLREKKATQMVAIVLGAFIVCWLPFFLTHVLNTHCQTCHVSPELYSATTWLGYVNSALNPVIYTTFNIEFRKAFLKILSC
Muscarinic acetylcholine receptor M5 (Homo sapiens), sequence (P08912 whole entry): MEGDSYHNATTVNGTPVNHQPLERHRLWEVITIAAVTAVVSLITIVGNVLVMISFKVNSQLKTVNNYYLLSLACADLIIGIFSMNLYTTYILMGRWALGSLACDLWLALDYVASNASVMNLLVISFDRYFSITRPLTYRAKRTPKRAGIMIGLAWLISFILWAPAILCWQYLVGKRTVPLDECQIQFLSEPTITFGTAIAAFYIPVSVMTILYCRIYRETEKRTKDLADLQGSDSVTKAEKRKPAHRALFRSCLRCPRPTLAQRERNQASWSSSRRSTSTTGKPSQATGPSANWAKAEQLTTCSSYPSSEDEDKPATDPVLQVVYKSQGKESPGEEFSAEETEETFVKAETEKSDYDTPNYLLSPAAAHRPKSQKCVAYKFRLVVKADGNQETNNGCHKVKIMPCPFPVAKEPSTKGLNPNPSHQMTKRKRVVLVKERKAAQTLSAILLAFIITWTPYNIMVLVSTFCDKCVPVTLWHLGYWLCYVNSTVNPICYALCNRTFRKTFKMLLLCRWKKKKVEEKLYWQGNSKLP
Macrophage metalloelastase (Homo sapiens), sequence (P39900 106-470 limits assumed): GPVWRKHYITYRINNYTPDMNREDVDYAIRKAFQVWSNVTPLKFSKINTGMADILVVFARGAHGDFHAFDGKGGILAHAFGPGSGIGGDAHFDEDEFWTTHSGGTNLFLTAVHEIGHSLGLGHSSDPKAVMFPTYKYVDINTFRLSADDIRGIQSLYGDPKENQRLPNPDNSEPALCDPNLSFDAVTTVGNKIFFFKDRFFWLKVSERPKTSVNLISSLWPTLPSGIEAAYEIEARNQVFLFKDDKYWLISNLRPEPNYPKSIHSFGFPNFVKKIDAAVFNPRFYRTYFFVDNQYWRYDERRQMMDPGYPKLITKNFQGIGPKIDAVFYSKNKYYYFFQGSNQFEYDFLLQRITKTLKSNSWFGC
Somatostatin receptor type 2 (Homo sapiens), sequence (P30874 whole entry): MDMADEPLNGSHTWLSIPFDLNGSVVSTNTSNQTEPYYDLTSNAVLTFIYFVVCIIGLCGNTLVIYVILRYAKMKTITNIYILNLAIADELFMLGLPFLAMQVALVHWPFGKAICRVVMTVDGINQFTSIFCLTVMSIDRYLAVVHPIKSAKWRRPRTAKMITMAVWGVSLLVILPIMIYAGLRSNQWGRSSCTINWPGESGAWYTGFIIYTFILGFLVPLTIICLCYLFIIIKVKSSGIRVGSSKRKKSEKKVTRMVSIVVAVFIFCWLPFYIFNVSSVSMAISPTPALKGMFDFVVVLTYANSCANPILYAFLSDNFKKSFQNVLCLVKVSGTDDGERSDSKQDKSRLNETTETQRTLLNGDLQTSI
Caspase-3 (Homo sapiens), sequence (P42574 29-175 limits assumed): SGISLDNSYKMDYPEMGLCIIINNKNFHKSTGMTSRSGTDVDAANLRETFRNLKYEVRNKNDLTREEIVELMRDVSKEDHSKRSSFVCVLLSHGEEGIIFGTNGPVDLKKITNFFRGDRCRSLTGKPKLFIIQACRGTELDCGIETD
Caspase-3 (Homo sapiens), sequence (P42574 176-277 limits assumed): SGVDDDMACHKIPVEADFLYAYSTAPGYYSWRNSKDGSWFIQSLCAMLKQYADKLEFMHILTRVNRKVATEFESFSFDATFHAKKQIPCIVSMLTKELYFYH
Histamine H3 receptor (Homo sapiens), sequence (Q9Y5N1 whole entry): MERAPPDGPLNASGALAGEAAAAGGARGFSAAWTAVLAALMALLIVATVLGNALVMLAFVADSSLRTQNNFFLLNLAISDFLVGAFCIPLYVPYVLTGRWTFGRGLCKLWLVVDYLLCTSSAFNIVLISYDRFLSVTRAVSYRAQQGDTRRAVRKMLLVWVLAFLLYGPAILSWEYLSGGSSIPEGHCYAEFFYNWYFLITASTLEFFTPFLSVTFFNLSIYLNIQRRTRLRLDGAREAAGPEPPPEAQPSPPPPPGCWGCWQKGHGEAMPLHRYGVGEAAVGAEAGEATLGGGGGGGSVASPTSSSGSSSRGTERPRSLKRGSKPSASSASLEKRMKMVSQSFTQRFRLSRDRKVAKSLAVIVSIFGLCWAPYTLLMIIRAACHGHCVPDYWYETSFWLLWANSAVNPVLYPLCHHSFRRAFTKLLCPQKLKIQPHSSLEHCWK
Polyunsaturated fatty acid lipoxygenase ALOX12 (Homo sapiens), sequence (P18054 whole entry): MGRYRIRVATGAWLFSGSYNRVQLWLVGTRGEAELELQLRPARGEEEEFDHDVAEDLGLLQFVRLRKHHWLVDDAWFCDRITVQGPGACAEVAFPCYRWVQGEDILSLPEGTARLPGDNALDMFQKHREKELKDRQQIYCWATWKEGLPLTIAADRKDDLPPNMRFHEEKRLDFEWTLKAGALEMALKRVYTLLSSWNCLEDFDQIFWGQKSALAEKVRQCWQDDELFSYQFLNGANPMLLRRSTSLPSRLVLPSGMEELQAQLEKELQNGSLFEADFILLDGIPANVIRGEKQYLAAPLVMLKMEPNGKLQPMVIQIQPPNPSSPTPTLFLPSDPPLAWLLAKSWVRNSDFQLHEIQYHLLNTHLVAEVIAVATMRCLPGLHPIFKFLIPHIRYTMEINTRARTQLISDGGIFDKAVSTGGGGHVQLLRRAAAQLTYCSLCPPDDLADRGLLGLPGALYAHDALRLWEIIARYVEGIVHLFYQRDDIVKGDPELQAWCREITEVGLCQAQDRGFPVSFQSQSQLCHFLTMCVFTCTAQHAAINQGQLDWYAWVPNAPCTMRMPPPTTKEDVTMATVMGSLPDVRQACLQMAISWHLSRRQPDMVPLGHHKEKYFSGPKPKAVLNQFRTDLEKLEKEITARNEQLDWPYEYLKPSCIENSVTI
Adenosine receptor A3 (Homo sapiens), sequence (P0DMS8 whole entry): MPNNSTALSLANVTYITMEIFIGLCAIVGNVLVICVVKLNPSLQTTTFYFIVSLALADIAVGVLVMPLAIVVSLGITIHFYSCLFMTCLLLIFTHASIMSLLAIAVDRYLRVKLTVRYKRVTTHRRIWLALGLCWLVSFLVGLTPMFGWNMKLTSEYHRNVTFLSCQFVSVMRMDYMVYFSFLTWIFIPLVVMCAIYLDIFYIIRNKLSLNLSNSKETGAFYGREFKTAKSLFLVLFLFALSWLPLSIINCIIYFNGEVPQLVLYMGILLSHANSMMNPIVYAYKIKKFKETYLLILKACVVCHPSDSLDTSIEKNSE
Receptor-type tyrosine-protein phosphatase C (Homo sapiens), sequence (P08575 whole entry): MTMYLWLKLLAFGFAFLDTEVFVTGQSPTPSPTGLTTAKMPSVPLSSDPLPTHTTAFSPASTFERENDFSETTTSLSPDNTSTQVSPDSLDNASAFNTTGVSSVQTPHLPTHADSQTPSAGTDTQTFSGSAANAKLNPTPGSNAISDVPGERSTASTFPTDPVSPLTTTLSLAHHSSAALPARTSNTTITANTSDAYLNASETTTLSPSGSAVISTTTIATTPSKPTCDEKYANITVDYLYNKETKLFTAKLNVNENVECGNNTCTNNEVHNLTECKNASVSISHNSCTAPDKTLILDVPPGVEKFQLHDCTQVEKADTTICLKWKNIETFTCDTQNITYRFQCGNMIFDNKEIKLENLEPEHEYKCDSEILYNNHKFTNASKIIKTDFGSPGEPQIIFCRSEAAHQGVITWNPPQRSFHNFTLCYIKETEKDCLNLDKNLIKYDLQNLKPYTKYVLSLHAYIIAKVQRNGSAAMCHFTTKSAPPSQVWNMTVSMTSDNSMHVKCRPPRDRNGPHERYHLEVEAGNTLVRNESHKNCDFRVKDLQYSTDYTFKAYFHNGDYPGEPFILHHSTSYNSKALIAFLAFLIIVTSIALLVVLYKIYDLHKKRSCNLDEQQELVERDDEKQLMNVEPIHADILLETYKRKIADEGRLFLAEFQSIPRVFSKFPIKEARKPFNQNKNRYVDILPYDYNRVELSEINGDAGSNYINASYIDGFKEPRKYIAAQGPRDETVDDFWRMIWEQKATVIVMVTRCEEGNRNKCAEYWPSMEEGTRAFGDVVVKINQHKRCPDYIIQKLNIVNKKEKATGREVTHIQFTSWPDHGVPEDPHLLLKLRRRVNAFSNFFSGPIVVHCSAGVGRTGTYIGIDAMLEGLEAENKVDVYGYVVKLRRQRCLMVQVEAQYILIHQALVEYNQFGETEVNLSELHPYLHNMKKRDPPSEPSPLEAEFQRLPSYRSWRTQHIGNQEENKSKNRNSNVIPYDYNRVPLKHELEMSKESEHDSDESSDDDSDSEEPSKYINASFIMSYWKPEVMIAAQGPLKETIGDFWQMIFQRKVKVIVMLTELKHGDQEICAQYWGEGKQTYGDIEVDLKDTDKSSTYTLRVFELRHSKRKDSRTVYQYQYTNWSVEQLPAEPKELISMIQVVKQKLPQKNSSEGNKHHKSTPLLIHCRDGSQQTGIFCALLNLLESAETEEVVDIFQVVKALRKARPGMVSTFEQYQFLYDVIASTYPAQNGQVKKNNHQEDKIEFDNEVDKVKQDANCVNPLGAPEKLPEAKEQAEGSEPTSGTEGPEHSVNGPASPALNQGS

COc1ccc(CNC(=O)c2cc(-c3cc(Cl)cc(Cl)c3)cnc2-c2cccnc2)cc1OC was tested, and the inhibition [1] was 6%, the inhibition [2] was 11% and the inhibition (Oryctolagus cuniculus) was 52%. The inhibition [3] was -6%, the inhibition [4] was -2% and the inhibition [5] was -3%. For the same compound, the inhibition [6] was 29%, the inhibition [7] was -3% and the inhibition [8] was 7%. For the same compound, the inhibition [9] was 11%, the inhibition (Rattus norvegicus [10]) was 1% and the inhibition [11] was 0%. It also gave an inhibition [12] of 19%, an inhibition (D(3) dopamine receptor [13]) of 19% and an inhibition [14] of -1%. The inhibition [15] was -5%, the inhibition [16] was 31% and the inhibition [17] was 24%. For the same compound, the inhibition (D(3) dopamine receptor [18]) was 3%, the inhibition [19] was 8% and the inhibition [20] was -5%. The inhibition [21] was -3%, the inhibition [22] was 1% and the inhibition (Rattus norvegicus [23]) was 0%. The inhibition [24] was 9%, the inhibition [25] was 14% and the inhibition [26] was 9%. It also gave an inhibition [27] of 0%, an inhibition [28] of 5% and an inhibition (Cricetinae) of 0%. For the same compound, the inhibition (Rattus norvegicus [29]) was -6%, the inhibition (Rattus norvegicus [30]) was 17% and the inhibition [31] was 5%. For the same compound, the inhibition [32] was -3%, the inhibition [33] was 33% and the inhibition (Caspase-3 (Homo sapiens)) was -1%. It also gave an inhibition (Bos taurus) of 16%, an inhibition [34] of 2% and an inhibition [35] of 9%.
